Patent US12565490B2, “Inhibitors of Receptor Interacting Protein Kinase I for the treatment of disease” (Board of Regents, The University of Texas System, priority 2020, dated 2026)

Tested on: human monocytic cell line U937
Assay: Human U937 cellular necroptosis assay
Assay type: cell-based
Conditions: U-937; U937 cells stimulated with 25 ng/mL human TNFalpha and 25 μM z-VAD-FMK; 22 hr; viability by Cell Titer-Glo 2.0; read-out: hU937 IC50
How it was run: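 U937 cells (5000/well) driven to necroptosis by 25 ng/mL human TNFalpha plus 25 μM z-VAD-FMK alongside 1:3-diluted compounds, 22 hr at 37° C, 5% CO2. Viability by CellTiter-Glo luminescence; IC50 from four-parameter logistic fit.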

| Compound | IC50 |
| --- | --- |
| CN1C(=O)[C@@H](NC(=O)c2ncc(Cl)c(-c3ccc(F)cc3F)n2)COc2ccc(-c3cn[nH]c3)cc21 [Example 151] | 13 nM |
| Cc1cnn(-c2ccc3c(c2)N(C)C(=O)[C@@H](NC(=O)c2ncc(Cl)c(-c4ccc(F)cc4F)n2)CO3)c1 [Example 152, (S)-5-chloro-4-(2,4-difluorophenyl)-N-(5-methyl-7-(4-methyl-1H-pyrazol-1-yl)-4-oxo-2,3,4,5-tetrahydrobenzo[b]-[1,4]oxazepin-3-yl)pyrimidine-2-carboxamide] | 29.2 nM |
| Cc1ccc(-c2nc(C(=O)N[C@H]3COc4ccc(CN5CCn6ncnc6C5)cc4N(C)C3=O)ncc2Cl)cc1F [Example 153, (S)-5-chloro-N-(7-((5,6-dihydro-[1,2,4]triazolo[1,5-a]pyrazin-7(8H)-yl)methyl)-5-methyl-4-oxo-2,3,4,5-tetrahydrobenzo[b]-[1,4]oxazepin-3-yl)-4-(3-fluoro-4-methylphenyl)pyrimidine-2-carboxamide] | 10 nM |
| CN1C(=O)[C@@H](NC(=O)c2ncc(Cl)c(-c3ccc(F)cc3F)n2)COc2cc(CN3CCn4ncnc4C3)ccc21 [Example 154, (S)-5-chloro-4-(2,4-difluorophenyl)-N-(8-((5,6-dihydro-[1,2,4]triazolo[1,5-a]pyrazin-7(8H)-yl)methyl)-5-methyl-4-oxo-2,3,4,5-tetrahydrobenzo[b]-[1,4]oxazepin-3-yl)pyrimidine-2-carboxamide] | 32.1 nM |
| CN1C(=O)[C@@H](NC(=O)c2ncc(Cl)c(-c3cc(F)ccc3F)n2)COc2cc(CN3CCn4ncnc4C3)ccc21 [Example 155, (S)-5-chloro-4-(2,5-difluorophenyl)-N-(8-((5,6-dihydro-[1,2,4]triazolo[1,5-a]pyrazin-7(8H)-yl)methyl)-5-methyl-4-oxo-2,3,4,5-tetrahydrobenzo[b]-[1,4]oxazepin-3-yl)pyrimidine-2-carboxamide] | 24.8 nM |
| Cc1cnc(C(=O)N[C@H]2COc3ccc(CN4CCn5ncnc5C4)cc3N(C)C2=O)nc1-c1ccccc1F [Example 156, (S)-N-(7-((5,6-dihydro-[1,2,4]triazolo[1,5-a]pyrazin-7(8H)-yl)methyl)-5-methyl-4-oxo-2,3,4,5-tetrahydrobenzo[b]-[1,4]oxazepin-3-yl)-4-(2-fluorophenyl)-5-methylpyrimidine-2-carboxamide] | 17.1 nM |
| Cc1cnc(C(=O)N[C@H]2COc3cc(Cl)cnc3N(C)C2=O)nc1-c1cc(C(F)(F)F)cs1 [Example 157, (S)-N-(8-chloro-5-methyl-4-oxo-2,3,4,5-tetrahydro-pyrido[3,2-b][1,4]oxazepin-3-yl)-5-methyl-4-(4-(trifluoromethyl)thiophen-2-yl)-pyrimidine-2-carboxamide] | 423 nM |
| Cc1cnc(C(=O)N[C@H]2COc3cc(Cl)cnc3N(C)C2=O)nc1C1CCC(F)(F)CO1 (stereo partly drawn) [Example 158, N-((S)-8-chloro-5-methyl-4-oxo-2,3,4,5-tetrahydro-pyrido[3,2-b][1,4]oxazepin-3-yl)-4-(5,5-difluorotetrahydro-2H-pyran-2-yl)-5-methylpyrimidine-2-carboxamide] | 149 nM |
| Cc1cnc(C(=O)N[C@H]2COc3ccc(Oc4cnn(C)c4)cc3N(C)C2=O)nc1-c1ccccc1F [Example 159, (S)-4-(2-fluorophenyl)-5-methyl-N-(5-methyl-7-((1-methyl-1H-pyrazol-4-yl)oxy)-4-oxo-2,3,4,5-tetrahydrobenzo[b]-[1,4]oxazepin-3-yl)pyrimidine-2-carboxamide] | 9 nM |
| Cc1cnc(C(=O)N[C@H]2COc3ccc(Oc4cnn(C)c4)cc3N(C)C2=O)nc1-c1ccc(C#N)cc1 [Example 160, (S)-4-(4-cyanophenyl)-5-methyl-N-(5-methyl-7-((1-methyl-1H-pyrazol-4-yl)oxy)-4-oxo-2,3,4,5-tetrahydrobenzo[b]-[1,4]oxazepin-3-yl)pyrimidine-2-carboxamide] | 24 nM |
| CN1C(=O)[C@@H](NC(=O)c2ncc(Cl)c(-c3cc(F)ccc3F)n2)COc2ccc(Oc3cnn(C)c3)cc21 [Example 161, (S)-5-chloro-4-(2,5-difluorophenyl)-N-(5-methyl-7-((1-methyl-1H-pyrazol-4-yl)oxy)-4-oxo-2,3,4,5-tetrahydrobenzo[b]-[1,4]oxazepin-3-yl)pyrimidine-2-carboxamide] | 9 nM |
| CN1C(=O)[C@@H](NC(=O)c2ncc(CN)c(-c3ccccc3)n2)COc2cc(Cl)cnc21 [Example 162, (S)-5-(aminomethyl)-N-(8-chloro-5-methyl-4-oxo-2,3,4,5-tetrahydropyrido[3,2-b][1,4]oxazepin-3-yl)-4-phenylpyrimidine-2-carboxamide] | 122 nM |
| CN1C(=O)[C@@H](NC(=O)c2ncc(Cl)c([C@@H]3COCCO3)n2)COc2cc(Cl)cnc21 [Example 163a, 5-chloro-N—((S)-8-chloro-5-methyl-4-oxo-2,3,4,5-tetrahydropyrido[3,2-b][1,4]oxazepin-3-yl)-4-((R)-1,4-dioxan-2-yl)pyrimidine-2-carboxamide] | 172 nM |
| Cc1cnc(C(=O)N[C@H]2COc3cc(Cl)cnc3N(C)C2=O)nc1C1COCCO1 (stereo partly drawn) [Example 164, N—((S)-8-chloro-5-methyl-4-oxo-2,3,4,5-tetrahydropyrido[3,2-b][1,4]oxazepin-3-yl)-4-(1,4-dioxan-2-yl)-5-methylpyrimidine-2-carboxamide] | 357 nM |
| CN1C(=O)[C@@H](NC(=O)c2ncc(Cl)c(-c3cc(F)c(CO)c(F)c3)n2)COc2cc(F)cnc21 [Example 166, (S)-5-chloro-4-(3,5-difluoro-4-(hydroxymethyl)phenyl)-N-(8-fluoro-5-methyl-4-oxo-2,3,4,5-tetrahydropyrido[3,2-b][1,4]oxazepin-3-yl)pyrimidine-2-carboxamide] | 196 nM |
| O=C(N[C@H]1COc2cc(F)cnc2NC1=O)c1ncc(Cl)c(-c2ccc(F)cc2F)n1 [Example 167, (S)-5-chloro-4-(2,4-difluorophenyl)-N-(8-fluoro-4-oxo-2,3,4,5-tetrahydropyrido[3,2-b][1,4]oxazepin-3-yl)pyrimidine-2-carboxamide] | 464 nM |
| [2H]C([2H])([2H])N1C(=O)[C@@H](NC(=O)c2ncc(Cl)c(-c3cccc(F)c3F)n2)COc2cc(F)cnc21 [Example 168, (S)-5-chloro-4-(2,3-difluorophenyl)-N-(8-fluoro-5-(methyl-d3)-4-oxo-2,3,4,5-tetrahydropyrido[3,2-b][1,4]oxazepin-3-yl)pyrimidine-2-carboxamide] | 45.2 nM |
| [2H]C([2H])([2H])c1cnc(C(=O)N[C@H]2COc3cc(F)cnc3N(C([2H])([2H])[2H])C2=O)nc1-c1ccccc1F [Example 169, (S)—N-(8-fluoro-5-(methyl-d3)-4-oxo-2,3,4,5-tetrahydropyrido[3,2-b][1,4]oxazepin-3-yl)-4-(2-fluorophenyl)-5-(methyl-d3)pyrimidine-2-carboxamide] | 20.9 nM |
| [2H]C([2H])([2H])N1C(=O)[C@@H](NC(=O)c2ncc(C)c(-c3ccccc3F)n2)COc2cc(F)cnc21 [Example 170, (S)—N-(8-fluoro-5-(methyl-d3)-4-oxo-2,3,4,5-tetrahydropyrido[3,2-b][1,4]oxazepin-3-yl)-4-(2-fluorophenyl)-5-methylpyrimidine-2-carboxamide] | 15.8 nM |
| Cc1cnc(C(=O)N[C@H]2COc3ccc(S(C)(=O)=O)cc3N(C)C2=O)nc1-c1ccccc1F [Example 171, (S)-4-(2-fluorophenyl)-5-methyl-N-(5-methyl-7-(methylsulfonyl)-4-oxo-2,3,4,5-tetrahydrobenzo[b][1,4]oxazepin-3-yl)pyrimidine-2-carboxamide] | 120 nM |
| Cc1cnc(C(=O)N[C@H]2COc3cc(Cl)cnc3N(C)C2=O)nc1C1CC(F)(F)CCN1 (stereo partly drawn) [Example 172, N—((S)-8-chloro-5-methyl-4-oxo-2,3,4,5-tetrahydropyrido[3,2-b][1,4]oxazepin-3-yl)-4-(4,4-difluoropiperidin-2-yl)-5-methylpyrimidine-2-carboxamide] | 175 nM |
